Reference: PMC10914731, “Homo-BacPROTAC-induced degradation of ClpC1 as a strategy against drug-resistant mycobacteria” (Nature Communications, 2024)
Values after ≈ are worked out from the molar mass of the structure shown. Values joined by “and” are separate entries in the source; they are usually repeats but may differ in a detail not shown here. Equal entries are not always repeated. Where two headings read alike, the source gives them in different places. Where a SMILES comes first, the peptide text is derived from it. [ ]: non-standard residue; d: D form. Trp(1-(1,1-Me2-allyl)) = C=CC(C)(C)n1cc(C[C@H](N)C(=O)O)c2ccccc21; Ala(3R-Me,3-isobutenyl) = CC(C)=C[C@@H](C)[C@H](N)C(=O)O; NMeLeu(5-OH,4R) = CN[C@@H](C[C@@H](C)CO)C(=O)O; Phe(βR-OMe) = CO[C@H](c1ccccc1)[C@H](N)C(=O)O; NMeL = CN[C@@H](CC(C)C)C(=O)O

Tests used:
[1] = Microsomal stability, human; format: in vitro ADME; conditions: for Microsomal Stability Human: clearance in microsomes
Procedure, shortened: (§1)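 Compound (1 µmol/l) was incubated at 37 °C with 0.5 mg/ml liver microsomes in 100 mM Tris-HCl pH 7.5, 6.5 mM MgCl2 and 1 mM NADPH. Reactions were quenched with acetonitrile at several time points and parent remaining quantified by HPLC-MS/MS; first-order half-lives were converted to clearance as %Qh via the well-stirred model.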

[2] = format: in vitro ADME, Mice; conditions: for Microsomal Stability Mice: clearance in microsomes
Procedure, shortened: as §1

[3] = test system: Msm 607; assay: microbe, parasite or virus in culture; format: cell-based; conditions: for Msm 607 MIC: single determinations
[4] = Hepatocyte stability, mice; format: in vitro ADME; conditions: mouse, pH 7.4
Procedure, shortened: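 1 µM cpd (DMSO <0.05% final), cryopreserved hepatocytes ~1e6 cells/mL, 50% serum, pH 7.4, 37 °C/5–10% CO2; up to 6 h, 6 timepoints; ACN quench, HPLC-MS/MS; t1/2 → CL via well-stirred model, % Qh.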

[5] = target: endogenous ClpC1 in Msm #607 cells (Mycolicibacterium smegmatis, UniProt A0R574); format: cell-based, M. smegmatis
[6] = target: ClpC1 NTD protein (M. tuberculosis) (Mycobacterium tuberculosis, UniProt P9WPC9); assay: biochemical; format: binding
[7] = target: ClpC1-NTD substrate, M. tuberculosis ClpC1P1P2 (Mycobacterium tuberculosis, UniProt P9WPC9); assay: biochemical; format: biochemical; conditions: Mtb
[8] = test system: M. tuberculosis H37Rv (ATCC 27294); assay: microbe, parasite or virus in culture; format: cell-based
[9] = target: His6-tagged ClpC1-NTD substrate, M. smegmatis ClpC1P1P2 (UniProt A0R574+P9WPC9); assay: biochemical; format: biochemical; conditions: for DC50: Msm; for % Response / ClpC1-NTD peak area: Figure 4a source data, well replicates
[10] = format: in vitro ADME, Rat; conditions: for Microsomal Stability Rat: clearance in microsomes
Procedure, shortened: as §1

[11] = test system: Caco-2 monolayers; assay: in vitro; conditions: human, Caco-2
Procedure, shortened: (§2)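 Permeability across Caco-2 monolayers was measured in both directions, apical-to-basolateral and basolateral-to-apical, in 10^-6 cm s-1. Efflux ratio = P(B−A)/P(A−B). Intrinsic permeability is the mean of P(A−B) and P(B−A).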

[12] = in vitro; conditions: human
Procedure, shortened: as §2

[13] = format: in vitro ADME, Human; conditions: human, pH 7.4
[14] = format: in vitro ADME, Rat; conditions: rat, pH 7.4
[15] = test system: Mtb H37Rv in THP-1 macrophages; assay: Intracellular MIC assay in THP-1 macrophages; format: cell-based, Mycobacterium tuberculosis; design: Emax: unit not given here
[16] = Mycolicibacterium smegmatis, 607, read-out: MIC Msm 607
[17] = Mycolicibacterium smegmatis, 607, read-out: Msm 607 MIC, single determinations
[18] = SPR (Supplementary Table 1), read-out: KD ClpC1-NTD Mean ± SD
[19] = SPR, single independent measurements, read-out: KD ClpC1-NTD
[20] = mean of the measurements, read-out: DC50, Mean
[21] = Mycobacterium tuberculosis, Mtb H37Rv (Supplementary Table 2), read-out: MIC Mtb
[22] = Mycobacterium tuberculosis, single determinations, read-out: Mtb MIC
[23] = single determinations, read-out: Mtb MIC

His6-tagged ClpC1-NTD substrate, M. smegmatis ClpC1P1P2, sequence (P9WPC9 1-156, looked up, natural form): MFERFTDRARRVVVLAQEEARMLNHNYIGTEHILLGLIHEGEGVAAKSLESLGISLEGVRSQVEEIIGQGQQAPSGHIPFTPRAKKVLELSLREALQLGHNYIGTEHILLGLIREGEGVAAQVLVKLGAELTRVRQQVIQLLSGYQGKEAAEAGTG
His6-tagged ClpC1-NTD substrate, M. smegmatis ClpC1P1P2, sequence (A0R574 whole entry): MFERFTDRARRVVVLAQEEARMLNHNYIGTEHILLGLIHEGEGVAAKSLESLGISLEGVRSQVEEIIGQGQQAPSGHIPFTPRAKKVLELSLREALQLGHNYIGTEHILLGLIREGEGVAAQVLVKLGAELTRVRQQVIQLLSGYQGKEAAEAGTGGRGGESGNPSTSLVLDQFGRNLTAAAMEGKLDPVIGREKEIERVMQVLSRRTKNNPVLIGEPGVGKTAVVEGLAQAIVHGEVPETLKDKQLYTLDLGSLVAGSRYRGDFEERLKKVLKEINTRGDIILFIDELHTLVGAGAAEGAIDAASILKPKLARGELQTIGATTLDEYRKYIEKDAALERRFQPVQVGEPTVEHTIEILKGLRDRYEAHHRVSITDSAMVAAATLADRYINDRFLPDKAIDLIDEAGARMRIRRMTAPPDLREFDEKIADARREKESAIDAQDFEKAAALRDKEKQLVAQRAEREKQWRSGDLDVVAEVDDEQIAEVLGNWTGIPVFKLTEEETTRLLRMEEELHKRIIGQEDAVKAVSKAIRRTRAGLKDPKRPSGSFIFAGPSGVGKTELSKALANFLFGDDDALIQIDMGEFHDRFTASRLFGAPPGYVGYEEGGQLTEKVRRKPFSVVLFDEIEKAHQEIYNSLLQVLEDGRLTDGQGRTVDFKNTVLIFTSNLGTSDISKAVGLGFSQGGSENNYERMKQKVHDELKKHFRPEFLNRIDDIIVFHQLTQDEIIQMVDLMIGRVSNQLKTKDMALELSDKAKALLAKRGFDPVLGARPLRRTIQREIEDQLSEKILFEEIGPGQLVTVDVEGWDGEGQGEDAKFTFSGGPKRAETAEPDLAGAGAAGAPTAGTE
ClpC1 NTD protein (M. tuberculosis), sequence (P9WPC9 1-156, looked up, natural form): as the sequence (P9WPC9 1-156, looked up, natural form) above
endogenous ClpC1 in Msm #607 cells, sequence (A0R574 whole entry): as the sequence (A0R574 whole entry) above
ClpC1-NTD substrate, M. tuberculosis ClpC1P1P2, sequence (P9WPC5 whole entry): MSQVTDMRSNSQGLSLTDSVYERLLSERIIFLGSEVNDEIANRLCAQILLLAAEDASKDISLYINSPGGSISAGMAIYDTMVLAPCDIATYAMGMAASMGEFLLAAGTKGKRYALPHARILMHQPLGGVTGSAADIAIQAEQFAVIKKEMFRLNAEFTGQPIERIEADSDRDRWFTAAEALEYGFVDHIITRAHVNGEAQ
ClpC1-NTD substrate, M. tuberculosis ClpC1P1P2, sequence (P9WPC9 whole entry): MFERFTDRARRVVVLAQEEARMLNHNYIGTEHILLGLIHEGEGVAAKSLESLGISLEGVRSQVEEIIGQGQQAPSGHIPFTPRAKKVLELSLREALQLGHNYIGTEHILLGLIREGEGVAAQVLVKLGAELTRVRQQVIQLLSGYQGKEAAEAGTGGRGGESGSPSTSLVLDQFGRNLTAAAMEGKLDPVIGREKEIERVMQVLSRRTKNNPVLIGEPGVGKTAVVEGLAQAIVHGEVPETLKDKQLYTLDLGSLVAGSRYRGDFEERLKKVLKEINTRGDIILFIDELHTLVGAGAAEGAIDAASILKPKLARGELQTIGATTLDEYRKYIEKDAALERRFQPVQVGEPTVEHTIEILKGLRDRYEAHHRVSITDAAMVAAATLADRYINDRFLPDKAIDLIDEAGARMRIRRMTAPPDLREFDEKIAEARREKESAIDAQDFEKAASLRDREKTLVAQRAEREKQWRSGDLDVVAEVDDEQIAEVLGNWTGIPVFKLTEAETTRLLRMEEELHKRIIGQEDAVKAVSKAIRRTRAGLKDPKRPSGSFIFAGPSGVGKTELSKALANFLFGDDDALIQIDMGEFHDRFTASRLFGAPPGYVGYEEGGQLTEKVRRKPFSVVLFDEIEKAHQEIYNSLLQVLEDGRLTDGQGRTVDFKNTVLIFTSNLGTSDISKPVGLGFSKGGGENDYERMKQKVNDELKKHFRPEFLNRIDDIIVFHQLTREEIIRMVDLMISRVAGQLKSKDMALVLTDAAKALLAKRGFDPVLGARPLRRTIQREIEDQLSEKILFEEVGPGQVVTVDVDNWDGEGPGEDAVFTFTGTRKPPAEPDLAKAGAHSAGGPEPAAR
ClpC1-NTD substrate, M. tuberculosis ClpC1P1P2, sequence (P9WPC3 whole entry, further chain): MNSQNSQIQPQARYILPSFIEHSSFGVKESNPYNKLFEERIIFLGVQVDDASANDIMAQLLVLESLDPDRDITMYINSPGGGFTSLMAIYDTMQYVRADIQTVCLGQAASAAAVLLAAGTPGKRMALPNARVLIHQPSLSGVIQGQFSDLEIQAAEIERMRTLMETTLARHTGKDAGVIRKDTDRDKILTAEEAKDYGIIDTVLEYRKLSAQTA

Compound: C=CC(C)(C)n1cc(C[C@@H]2NC(=O)[C@H]([C@H](C)C=C(C)C)NC(=O)[C@H](CC(C)C)N(C)C(=O)[C@H](C(C)C)NC(=O)[C@H]([C@H](OC)c3ccccc3)NC(=O)[C@H](C)NC(=O)[C@H](C[C@@H](C)CO)N(C)C2=O)c2ccccc21 [dCymC] (cyclo([Trp(1-(1,1-Me2-allyl))][NMeLeu(5-OH,4R)]A[Phe(βR-OMe)]V[NMeL][Ala(3R-Me,3-isobutenyl)]))
- Microsomal Stability Human QH [1]: 65.700%
- Microsomal Stability Human [1]: 66 %Qh
- Microsomal Stability Mouse QH [2]: 56.100%
- Microsomal Stability Mice [2]: 56 %Qh
- MIC [3, 16]: 2.8 ± 0.4 µM (≈ 2.83 µg/mL)
- MIC [3, 17]: 3.12 µM (≈ 3.16 µg/mL)
- Msm 607 MIC [3]: 2.500 µM
- Hepatocyte Mice [4]: 46 %Qh
- ClpC1 peak area ([5]; 100 µM, Figure 5c, well replicates of 3 experiments): 516046 and 317875 and 398263 and 302242 and 500156 and 40170.6 and 421518 and 401814 and 368135
- intracellular degradation of ClpC1 ([5]; Msm #607, 24 h, result in words): did not induce degradation of ClpC1
- Kd [6, 18]: 1.1 ± 0.4 nM
- Kd ([6]; SPR, individual measurements (source data), read-out: KD ClpC1-NTD): 2.02 nM and 1.58 nM and 1.15 nM (5×) and 0.995 nM and 1.06 nM (3×) and 1.21 nM (2×) and 1.23 nM (3×) and 0.859 nM and 1.01 nM (4×) and 1.13 nM (2×) and 1.16 nM (5×) and 0.401 nM and 0.981 nM and 0.95 nM and 1.03 nM and 0.866 nM and 1.14 nM (2×) and 1.54 nM and 0.99 nM and 1.26 nM and 1.53 nM (2×) and 1.07 nM (3×) and 1.05 nM (3×) and 1.09 nM (4×) and 1.84 nM and 1.39 nM (2×) and 1.44 nM and 1.47 nM (2×) and 0.934 nM and 1.1 nM (3×) and 0.723 nM and 2.22 nM and 0.892 nM and 0.91 nM and 1.75 nM (3×) and 0.741 nM and 0.702 nM and 1.25 nM (2×) and 0.729 nM and 0.721 nM and 1.67 nM and 1.63 nM and 1.37 nM and 1.92 nM and 1.99 nM and 1.17 nM and 1.08 nM (3×) and 0.583 nM and 1.11 nM (4×) and 0.666 nM and 0.718 nM and 0.833 nM and 0.74 nM and 0.783 nM and 0.822 nM and 0.734 nM and 0.671 nM and 1.6 nM and 1.52 nM (2×) and 1.45 nM (3×) and 1.33 nM (3×) and 1.28 nM (2×) and 1.31 nM and 0.952 nM (2×) and 0.854 nM and 1.2 nM (3×) and 0.728 nM and 0.717 nM and 1.59 nM and 1.51 nM and 0.903 nM and 0.9 nM (2×) and 0.985 nM and 1.18 nM and 0.911 nM and 0.904 nM and 1.12 nM and 0.85 nM and 0.908 nM and 1.02 nM and 3.37 nM and 0.912 nM and 0.781 nM and 0.973 nM and 0.999 nM and 0.958 nM and 0.76 nM and 0.886 nM and 0.843 nM and 1.04 nM (4×) and 1.24 nM and 0.917 nM and 0.907 nM and 0.838 nM
- Kd [6, 19]: 1.15 nM (5×) and 1.06 nM (3×) and 1.21 nM (2×) and 1.23 nM (3×) and 1.01 nM (4×) and 1.13 nM (2×) and 1.16 nM (5×) and 1.14 nM (2×) and 1.53 nM (2×) and 1.07 nM (3×) and 1.05 nM (3×) and 1.09 nM (4×) and 1.39 nM (2×) and 1.47 nM (2×) and 1.1 nM (3×) and 1.75 nM (3×) and 1.25 nM (2×) and 1.08 nM (3×) and 1.11 nM (4×) and 1.52 nM (2×) and 1.45 nM (3×) and 1.33 nM (3×) and 1.28 nM (2×) and 0.952 nM (2×) and 1.2 nM (3×) and 0.9 nM (2×) and 1.04 nM (4×)
- Kd ([6]; SPR, read-out: ClpC1-NTD KD Mean ± SD): 1.1 ± 0.4 nM
- DC50 ([7]; Measurement 1-4, read-out: DC50, single measurements): > 100000 nM
- DC50 [7, 20]: > 100000 nM
- MIC ([8]; Mycobacterium tuberculosis, M. tuberculosis H37Rv strain, read-out: MIC Mtb H37Rv Mean ± SD): 0.4 ± 0.1 µM (≈ 0.405 µg/mL)
- MIC [8, 21]: 0.4 ± 0.1 µM (≈ 0.405 µg/mL)
- MIC ([8]; Mycobacterium tuberculosis, individual measurements (source data), read-out: Mtb MIC): 0.39 µM (≈ 0.394 µg/mL)
- MIC [8, 22]: 0.39 µM (≈ 0.394 µg/mL)
- MIC ([8]; individual measurements (source data), read-out: Mtb MIC): 0.390 µM and 0.600 µM and 0.300 µM
- MIC [8, 23]: 0.600 µM and 0.300 µM
- DC50 ([9]; Measurement 1-6, read-out: DC50, single measurements): > 100000 nM
- DC50 [9, 20]: > 100000 nM
- degradation of the His6-tagged ClpC1-NTD substrate ([9]; cell-free, result in words): did not cause any degradation
- % Response ([9]; conc. 0.4 µM): 106.994% and 100.864% and 100.549% and 126.212% and 118.079% and 125.703% and 101.139% and 105.018% and 104.304%
- ClpC1-NTD peak area ([9]; conc. 0.4 µM): 974818 and 1343173 and 762481 and 700950 and 757234 and 818245 and 783567 and 770572 and 1135273
- % Response ([9]; conc. 33.3 µM): 107.525% and 103.829% and 103.089% and 121.205% and 120.164% and 127.4% and 120.436% and 100.085% and 97.8128%
- ClpC1-NTD peak area ([9]; conc. 33.3 µM): 1099272 and 1301491 and 948418 and 890861 and 865884 and 830598 and 816002 and 754560 and 1171647
- % Response ([9]; conc. 100.0 µM): 99.5642% and 103.437% and 105.517% and 119.388% and 117.765% and 125.04% and 101.258% and 115.542% and 91.4636%
- ClpC1-NTD peak area ([9]; conc. 100.0 µM): 1282982 and 1406378 and 1339163 and 984807 and 916165 and 1033433 and 896176 and 856679 and 1974349
- Microsomal Stability Rat QH [10]: 38.300%
- Microsomal Stability Rat [10]: 38 %Qh
- Caco-2 Int. Perm [11]: 2.2
- Influence of N-methylation on permeability [11]: 1.6
- efflux ratio ([12]; Caco-2): 3
- Papp B→A ([12]; Caco-2, CACO permeability PEBA): 2.6 ×10⁻⁶ cm/s
- Papp A→B ([12]; Caco-2, Caco-2 permeability P (A-B)): 1.3 ×10⁻⁶ cm/s
- Papp B→A ([12]; Caco-2, Caco-2 permeability P (B-A)): 3.1 ×10⁻⁶ cm/s
- Hepatocyte Human [13]: 36 %Qh
- Hepatocyte Stability Human QH [13]: 38.000%
- Hepatocyte Rat [14]: 55 %Qh
- Hepatocyte Stability Rat QH [14]: 55.000%

Compound: CO[C@H](c1ccccc1)[C@@H]1NC(=O)[C@H](C)NC(=O)[C@H](C[C@@H](C)CO)N(C)C(=O)[C@H](Cc2cn(Cc3cn(CCOCCOCCOCCn4cc(Cn5cc(C[C@@H]6NC(=O)[C@H](C(C)C)NC(=O)[C@H](CC(C)C)N(C)C(=O)[C@H](C(C)C)NC(=O)[C@H]([C@H](OC)c7ccccc7)NC(=O)[C@H](C)NC(=O)[C@H](C[C@@H](C)CO)N(C)C6=O)c6ccccc65)nn4)nn3)c3ccccc23)NC(=O)[C@H](C(C)C)NC(=O)[C@H](CC(C)C)N(C)C(=O)[C@H](C(C)C)NC1=O [Compound 7]
- Microsomal Stability Human QH [1]: > 88.4% and 86.5%
- Microsomal Stability Human [1]: 88 %Qh
- Microsomal Stability Mouse QH [2]: 58.9% and 48.2%
- Microsomal Stability Mice [2]: 53 %Qh
- MIC [3, 16]: 1.4 ± 0.2 µM (≈ 2.98 µg/mL)
- MIC [3, 17]: 1.56 µM (≈ 3.32 µg/mL)
- Msm 607 MIC [3]: 1.250 µM
- Emax [15]: 1.22
- intracellular viable mycobacteria ([15]; 0.19µM, Day 4, well replicates): 5.34 log10 cfu/ml
- intracellular viable mycobacteria ([15]; 0.19µM, Day 7, well replicates): 5.68 log10 cfu/ml
- intracellular viable mycobacteria ([15]; 0.781µM, Day 4, well replicates): 4.98 log10 cfu/ml
- intracellular viable mycobacteria ([15]; 0.781µM, Day 7, well replicates): 4.98 log10 cfu/ml
- intracellular viable mycobacteria ([15]; 3.125µM, Day 4, well replicates): 4.75 log10 cfu/ml
- intracellular viable mycobacteria ([15]; 3.125µM, Day 7, well replicates): 4.56 log10 cfu/ml
- intracellular viable mycobacteria ([15]; 50µM, Day 4, well replicates): 4.39 log10 cfu/ml and 4.51 log10 cfu/ml
- intracellular viable mycobacteria ([15]; 50µM, Day 7, well replicates): 3.96 log10 cfu/ml
- Kd [6, 18]: 0.46 ± 0.05 nM
- koff ([6]; SPR dissociation rate constant, read-out: koff ClpC1-NTD Mean ± SD): 0.001 s⁻¹
- koff ClpC1-NTD ([6]; SPR, single independent measurements): 0.001 s⁻¹ and 0.0008 s⁻¹ and 0.0006 s⁻¹
- Kd [6, 19]: 0.473 nM and 0.459 nM and 0.508 nM and 0.398 nM
- koff ([6]; SPR, single independent measurements, read-out: koff ClpC1-NTD): 0.001 s⁻¹
- MIC [8, 21]: 0.1 µM (≈ 0.213 µg/mL)
- MIC [8, 22]: 0.098 µM (≈ 0.208 µg/mL)
- MIC [8, 23]: 0.156 µM (≈ 0.332 µg/mL)
- Microsomal Stability Rat QH [10]: 41.7% and 36.7%
- Microsomal Stability Rat [10]: 40 %Qh
